Results: paper PMC10057445, “Interactions of N-Mannich Bases of Pyrrolo[3,4-c]pyrrole with Artificial Models of Cell Membranes and Plasma Proteins, Evaluation of Anti-Inflammatory and Antioxidant Activity” (Membranes, 2023)

Target: T1, human serum albumin (HSA) (Homo sapiens, UniProt P02768)
T1 construct: gene ALB; commercial powder (Sigma Aldrich), mature plasma protein
Experiment: intrinsic fluorescence quenching, ex […] nm
Assay type: binding
Details: double-log; 297 K, pH 7.4 phosphate, no site marker

T1 sequence (P02768 25-609): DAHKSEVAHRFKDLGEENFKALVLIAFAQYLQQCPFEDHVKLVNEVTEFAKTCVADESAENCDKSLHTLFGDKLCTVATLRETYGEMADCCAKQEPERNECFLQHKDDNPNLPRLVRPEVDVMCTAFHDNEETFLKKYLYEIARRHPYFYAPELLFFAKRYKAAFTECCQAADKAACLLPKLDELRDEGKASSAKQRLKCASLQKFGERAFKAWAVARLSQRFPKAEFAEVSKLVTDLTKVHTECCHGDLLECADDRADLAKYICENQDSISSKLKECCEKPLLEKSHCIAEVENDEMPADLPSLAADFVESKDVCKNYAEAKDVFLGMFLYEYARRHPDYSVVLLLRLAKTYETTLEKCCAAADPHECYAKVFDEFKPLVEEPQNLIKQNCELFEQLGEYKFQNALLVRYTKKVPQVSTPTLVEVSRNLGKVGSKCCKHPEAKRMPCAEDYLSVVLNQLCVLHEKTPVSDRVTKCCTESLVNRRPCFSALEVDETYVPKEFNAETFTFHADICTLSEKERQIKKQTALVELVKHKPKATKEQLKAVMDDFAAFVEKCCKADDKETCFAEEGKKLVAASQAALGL

Row | Binding / Kb × 10^3 [dm^3.mol^-1] | Structure (SMILES)
1 | 9.12 × 10^3 dm^3·mol^-1 | Cc1c2c(c(C)n1-c1ccccc1)C(=O)N(CN1CCN(c3ccccc3)CC1)C2=O [7a]
2 | 1.66 × 10^3 dm^3·mol^-1 | Cc1c2c(c(C)n1-c1ccccc1)C(=O)N(CN1CCN(S(C)(=O)=O)CC1)C2=O [7l]
